Experimental data published in paper PMC6941952, “A homogeneous bioluminescent immunoassay to probe cellular signaling pathway regulation” (Communications Biology, 2020).
Values joined by “and” are separate entries in the source; they are usually repeats but may differ in a detail not shown here. Equal entries are not always repeated.

Tested on: STAT3 Phospho-Tyr705
Assay: NanoBiT pSTAT3 cell-based immunoassay in A431 cells
Parameters: species or system human
Settings: IL-6 10 ng/ml; for P-STAT3 (% compared to no inhibitor): replicate
Procedure: Prior to NanoBiT Cell-Based Immunoassay, 50,000 cells were seeded in 160 µl of complete growth media per well of a 96-well plate and incubated overnight. […] If necessary, the cell culture media were replaced with serum-free media after the cells were stably adherent on the plate and incubated overnight. To treat cells with activators or inhibitors, medium was changed to 30 µl of medium containing inhibitors. If activation of a specific pathway is needed, the cells were stimulated with 10 µl of medium containing activators. To lyse the cells, 10 µl of lysis buffer containing 0.1% digitonin diluted in 1X immunoassay buffer with protease and phosphatase inhibitors was added and the plates were mixed vigorously for 20 min. Then, 50 µl of an antibody mix containing two primary antibodies against the target protein and NanoBiT detecting antibodies (0.3 µl each per well), diluted in 1X immunoassay buffer was added to the lysates. The plates were incubated at 23 °C for 90 min, followed by the addition of 25 µl of Nano-Glo® reagent consisting of Nano-Glo® Luciferase Assay Substrate mixed with 1X immunoassay buffer. Luminescence was measured using a plate-reading luminometer.
Single dose or dose response inhibitor treatments were performed prior to activation of the pathways as follows. For IκBα, the cells were treated in 30 µl medium with IKK16 or MG132 for 60 min before the addition of 10 µl of DMEM containing appropriate concentration of TNFα. To measure phosphorylation of AKT or STAT3, the corresponding NanoBiT immunoassays were developed with MCF-7 or A431 cells, respectively, according the same scheme used to develop the IκBα assay using the primary antibodies for AKT and STAT3 described in the reagents section. […] Treatment with LY294002 was performed in 30 µl medium and cells were incubated for 60 min before the addition of 1 µM Insulin. To measure STAT3 phosphorylation, A431 cells were incubated overnight in DMEM medium without serum. […] After addition of the stimulators, the cells were incubated for additional times as follows. IκBα phosphorylation and degradation analyses required both time courses and single time points as described in figures. […] The NanoBiT immunoassay protocol was followed as described above.
All 96-well assay plates were read using a GloMax® 96 Microplate Luminometer from Promega. The instrument was set to 0.5 s integration time. In order to obtain net change of signal, the reagent background values (signal from the well containing all reagent except primary antibodies) were subtracted from the sample values. To plot and analyze the data, Microsoft Excel and GraphPad Prism® Software were used. IC50 values were determined by using a nonlinear regression fit to a sigmoidal dose response (variable slope).

In the case of `CN(C)C(=O)/C(C#N)=C/c1ccc(-c2nc3cnc4[nH]ccc4c3n2C2CCCCC2)o1` [FM-381], the “P-STAT3 (% compared to no inhibitor) Average” value (inhibitor 0.0190735 nM) was 105.1%, the “P-STAT3 (% compared to no inhibitor) Average” value (inhibitor 0.038147 nM) was 92.2% and the “P-STAT3 (% compared to no inhibitor) Average” value (inhibitor 0.0762939 nM) was 92.0%. The “P-STAT3 (% compared to no inhibitor) Average” value (inhibitor 0.152588 nM) was 93.2%, the “P-STAT3 (% compared to no inhibitor) Average” value (inhibitor 0.305176 nM) was 90.6% and the “P-STAT3 (% compared to no inhibitor) Average” value (inhibitor 0.610352 nM) was 92.3%. For the same molecule, the “P-STAT3 (% compared to no inhibitor) Average” value (inhibitor 1.2207 nM) was 95.1%, the “P-STAT3 (% compared to no inhibitor) Average” value (inhibitor 2.44141 nM) was 87.8% and the “P-STAT3 (% compared to no inhibitor) Average” value (inhibitor 4.88281 nM) was 94.8%. The “P-STAT3 (% compared to no inhibitor) Average” value (inhibitor 9.76562 nM) was 88.5%, the “P-STAT3 (% compared to no inhibitor) Average” value (inhibitor 19.5312 nM) was 102.9% and the “P-STAT3 (% compared to no inhibitor) Average” value (inhibitor 39.0625 nM) was 94.1%. For the same molecule, the “P-STAT3 (% compared to no inhibitor) Average” value (inhibitor 78.125 nM) was 88.7%, the “P-STAT3 (% compared to no inhibitor) Average” value (inhibitor 156.25 nM) was 85.8% and the “P-STAT3 (% compared to no inhibitor) Average” value (inhibitor 312.5 nM) was 74.2%. For the same molecule, the “P-STAT3 (% compared to no inhibitor) Average” value (inhibitor 625 nM) was 60.8%, the “P-STAT3 (% compared to no inhibitor) Average” value (inhibitor 2500 nM) was 22.9% and the “P-STAT3 (% compared to no inhibitor) Average” value (inhibitor 5000 nM) was 12.0%. The “P-STAT3 (% compared to no inhibitor) Average” value (inhibitor 10000 nM) was 7.8%, the “P-STAT3 (% compared to no inhibitor) Average” value (inhibitor […]) was 41.3% and the “P-STAT3 Raw data” value (inhibitor 0.0190735 nM) was 278100 and 296300 and 285800. For the same molecule, the “P-STAT3 Subtract reagent background” value (inhibitor 0.0190735 nM) was 177250 and 195450 and 184950, the “P-STAT3 Raw data” value (inhibitor 0.038147 nM) was 270700 and 268700 and 257500 and the “P-STAT3 Subtract reagent background” value (inhibitor 0.038147 nM) was 168850 and 166850 and 155650. The “P-STAT3 Raw data” value (inhibitor 0.0762939 nM) was 272300 and 259800 and 258800, the “P-STAT3 Subtract reagent background” value (inhibitor 0.0762939 nM) was 172505 and 160005 and 159005 and the “P-STAT3 Raw data” value (inhibitor 0.152588 nM) was 261700 and 262700 and 269600. For the same molecule, the “P-STAT3 Subtract reagent background” value (inhibitor 0.152588 nM) was 162310 and 163310 and 170210, the “P-STAT3 Raw data” value (inhibitor 0.305176 nM) was 244400 and 266100 and 264700 and the “P-STAT3 Subtract reagent background” value (inhibitor 0.305176 nM) was 145940 and 167640 and 166240. The “P-STAT3 Raw data” value (inhibitor 0.610352 nM) was 253900 and 276500 and 252400, the “P-STAT3 Subtract reagent background” value (inhibitor 0.610352 nM) was 156070 and 178670 and 154570 and the “P-STAT3 Raw data” value (inhibitor 1.2207 nM) was 278300 and 261300 and 251600. For the same molecule, the “P-STAT3 Subtract reagent background” value (inhibitor 1.2207 nM) was 184135 and 167135 and 157435, the “P-STAT3 Raw data” value (inhibitor 2.44141 nM) was 238200 and 252900 and 237300 and the “P-STAT3 Subtract reagent background” value (inhibitor 2.44141 nM) was 150835 and 165535 and 149935. The “P-STAT3 Raw data” value (inhibitor 4.88281 nM) was 243400 and 259600 and 241900, the “P-STAT3 Subtract reagent background” value (inhibitor 4.88281 nM) was 162830 and 179030 and 161330 and the “P-STAT3 Raw data” value (inhibitor 9.76562 nM) was 219800 and 245100 and 214000. For the same molecule, the “P-STAT3 Subtract reagent background” value (inhibitor 9.76562 nM) was 149750 and 175050 and 143950, the “P-STAT3 Raw data” value (inhibitor 19.5312 nM) was 297400 and 269300 and 273700 and the “P-STAT3 Subtract reagent background” value (inhibitor 19.5312 nM) was 172850 and 196550 and 168450. For the same molecule, the “P-STAT3 Raw data” value (inhibitor 39.0625 nM) was 266500 and 275400 and 255500, the “P-STAT3 Subtract reagent background” value (inhibitor 39.0625 nM) was 153650 and 164650 and 173550 and the “P-STAT3 Raw data” value (inhibitor 78.125 nM) was 243600 and 255500 and 264900. The “P-STAT3 Subtract reagent background” value (inhibitor 78.125 nM) was 165105 and 143805 and 155705, the “P-STAT3 Raw data” value (inhibitor 156.25 nM) was 244000 and 250600 and 253000 and the “P-STAT3 Subtract reagent background” value (inhibitor 156.25 nM) was 153610 and 144610 and 151210. For the same molecule, the “P-STAT3 Raw data” value (inhibitor 312.5 nM) was 227000 and 243200 and 212500, the “P-STAT3 Subtract reagent background” value (inhibitor 312.5 nM) was 114040 and 128540 and 144740 and the “P-STAT3 Raw data” value (inhibitor 625 nM) was 189200 and 199400 and 224200. The “P-STAT3 Subtract reagent background” value (inhibitor 625 nM) was 126370 and 91370 and 101570, the “P-STAT3 Raw data” value (inhibitor 2500 nM) was 128000 and 133500 and 120100 and the “P-STAT3 Subtract reagent background” value (inhibitor 2500 nM) was 32735 and 40635 and 46135. The “P-STAT3 Raw data” value (inhibitor 5000 nM) was 101000 and 109100 and 93870, the “P-STAT3 Raw data” value (inhibitor 10000 nM) was 84360 and 88520 and 77950 and the “P-STAT3 (% compared to no inhibitor)” value (inhibitor 0.0190735 nM) was 88.0% and 120.5% and 106.8%. The “P-STAT3 (% compared to no inhibitor)” value (inhibitor 0.038147 nM) was 83.9% and 102.9% and 89.9%, the “P-STAT3 (% compared to no inhibitor)” value (inhibitor 0.0762939 nM) was 85.7% and 98.6% and 91.8% and the “P-STAT3 (% compared to no inhibitor)” value (inhibitor 0.152588 nM) was 80.6% and 100.7% and 98.3%. The “P-STAT3 (% compared to no inhibitor)” value (inhibitor 0.305176 nM) was 72.5% and 103.3% and 96.0%, the “P-STAT3 (% compared to no inhibitor)” value (inhibitor 0.610352 nM) was 77.5% and 110.1% and 89.2% and the “P-STAT3 (% compared to no inhibitor)” value (inhibitor 1.2207 nM) was 91.5% and 103.0% and 90.9%. For the same molecule, the “P-STAT3 (% compared to no inhibitor)” value (inhibitor 2.44141 nM) was 74.9% and 102.0% and 86.6%, the “P-STAT3 (% compared to no inhibitor)” value (inhibitor 4.88281 nM) was 80.9% and 110.4% and 93.1% and the “P-STAT3 (% compared to no inhibitor)” value (inhibitor 9.76562 nM) was 74.4% and 107.9% and 83.1%. The “P-STAT3 (% compared to no inhibitor)” value (inhibitor 19.5312 nM) was 95.2% and 115.2% and 98.2%, the “P-STAT3 (% compared to no inhibitor)” value (inhibitor 39.0625 nM) was 84.6% and 96.5% and 101.2% and the “P-STAT3 (% compared to no inhibitor)” value (inhibitor 78.125 nM) was 90.9% and 84.3% and 90.8%. For the same molecule, the “P-STAT3 (% compared to no inhibitor)” value (inhibitor 156.25 nM) was 84.6% and 84.8% and 88.2%, the “P-STAT3 (% compared to no inhibitor)” value (inhibitor 312.5 nM) was 62.8% and 75.3% and 84.4% and the “P-STAT3 (% compared to no inhibitor)” value (inhibitor 625 nM) was 69.6% and 53.6% and 59.2%. The “P-STAT3 (% compared to no inhibitor)” value (inhibitor 2500 nM) was 18.0% and 23.8% and 26.9%, the “P-STAT3 (% compared to no inhibitor)” value (inhibitor 5000 nM) was 7.3% and 12.0% and 16.6% and the “P-STAT3 (% compared to no inhibitor)” value (inhibitor 10000 nM) was 4.3% and 8.4% and 10.8%.
